Measurements: patent publication US20190209501A1, “COMPOSITIONS AND METHODS OF USE OF BETA-HYDROXY-BETA-METHYLBUTYRATE (HMB) […] IN[…]” (Texas Tech University Office of Research Commercialization, priority 2018, published 2019)
Entries after “also recorded” stand apart in the source; their conditions may differ.

Columns and labels:
[1] = Muscle thickness of elbow flexors and knee extensors via ultrasonography; type: in vivo, human; conditions: for MTEF ES (d) / MTKE ES (d): Cohen's d baseline vs week 8; for MTEF Δ (%) / MTKE Δ (%): change baseline to week 8 relative to baseline; for MTEF (cm) Week 8: muscle thickness elbow flexors; for MTEF (cm) Week 8 / MTKE (cm) Week 8: mean ± SE; for MTKE (cm) Week 8: muscle thickness knee extensors; for MTEF (cm) Δ / MTKE (cm) Δ: week 8 minus baseline
Protocol: In addition to whole-body composition estimates, muscle thickness of the elbow flexors (MTEF) and knee extensors (MTKE) was evaluated via ultrasonography (Logiq e, General Electric. Boston, Mass. USA) at baseline and study completion. […] These distances were measured while the participant was standing, and measurement distances at baseline were recorded and used at the final assessment. All assessments took place on the right side of the body. In the supine position, the participant's arm was abducted to ˜80° with the arm supported for elbow flexor measurements. For knee extensor measurements, a foam pad was placed beneath the knee to allow an ˜10° bend at the knee joint. For all assessments, transmission gel was generously applied to the marked measurement location, and minimal pressure was applied by the transducer in order to avoid tissue compression. Three single transverse images were taken at each location, with values averaged for analysis. The gain and depth of the transducer were kept consistent for all measurements at a given site. Ultrasound images were blinded for analysis and analyzed by a single blinded researcher using ImageJ (v. 1.52a; National Institutes of Health, USA). The reliability of the researcher analyzing ultrasound images was determined through blinded analysis of 28 randomly selected ultrasound images on two occasions. This exercise produced minimum differences (MD) of 0.07 cm for MTEF and 0.14 cm for MTKE.

[2] = Salivary cortisol awakening response; type: in vivo, human; set-up: Cortisol Awakening Response (AUC) / Cortisol Awakening Response (AUC) Δ: unit not given here; conditions: for Average Cortisol / Cortisol Awakening Response (AUC): mean ± SE; for Average Cortisol Δ / Average Cortisol Δ (%) / Cortisol Awakening Response (AUC) Δ / Cortisol Awakening Response (AUC) Δ (%): change baseline to W 8; for Average Cortisol ES (d) / Cortisol Awakening Response (AUC) ES (d): effect size
Text: At baseline and after 4 and 8 weeks of the intervention, participants completed two testing sessions: (1) a morning assessment conducted after an overnight fast for assessment of body composition, metabolism, vascular measures and subjective factors: and (2) an afternoon assessment of muscular performance, conducted in the non-fasted state. For morning assessments, participants reported to the laboratory after abstention from eating, drinking, exercising and utilizing caffeine or nicotine for ≥8 hours. Participants were interviewed to confirm adherence to these pre-assessment restrictions. The actual abstention from exercise was ≥14 hours due to the scheduling of exercise sessions. Participants reported to the laboratory wearing athletic clothing, and all metal and accessories were removed from the body prior to testing. Each participant voided her bladder and provided a urine sample. Urine samples were assessed for urine specific gravity (USG) using a digital refractometer (PA201X-093. Misco, Solon, Ohio. USA). Additionally, a standard urinary HCG test was performed to confirm that each participant was not pregnant. Finally, urinary samples were frozen at −80° C. for assessment of urinary HMB content after study unblinding. After voiding, each participant's body mass (BM) and height were determined via digital scale with stadiometer (Seca 769, Hamburg, Germany). Blood draws were performed at Texas Tech University Student Health Services after an overnight fast, and participants completed at-home saliva collections for assessment of the cortisol awakening response (CAR).
Each participant was familiarized with the saliva collection procedures at the baseline visit. Saliva collection took place using the passive drool method, with allows for saliva to be transferred from the mouth to a small vial according to manufacturer recommendations (36). Three saliva samples during the baseline period for assessment of the cortisol awakening response (CAR; the characteristic increase in cortisol concentrations upon waking (37)). These samples were collected at the participant's home 0, 30 and 45 minutes after waking. The importance of collecting the saliva sample exactly as instructed was strongly emphasized to research participants. Participants were provided with reminder signs to place by the bedside and were instructed to set alarms for saliva collection timepoints. Upon obtaining the sample, each participant was instructed to place the vial in the freezer until it could be transported to the laboratory. Upon delivery to the lab, each vial of saliva was stored at −80° C. until shipment to a saliva testing facility for analysis (Salimetrics LLC, Carlsbad, Calif., USA). For the analysis, samples were thawed to room temperature, vortexed, and then centrifuged for 15 minutes at approximately 3,000 RPM (1,500×g) immediately before performing the assay. Samples were tested for salivary cortisol using a high sensitivity enzyme immunoassay (Cat. No. 1-3002). Sample test volume was 25 μl of saliva per determination. The assay has a lower limit of sensitivity of 0.007 μg/dL, a standard curve range from 0.012-3.0 μg/dL, and an average intra-assay coefficient of variation of 4.60%, and an average inter-assay coefficient of variation 6.00%, which meets the manufacturers' criteria for accuracy and repeatability in Salivary Bioscience. and exceeds the applicable NIH guidelines for Enhancing Reproducibility through Rigor and Transparency.

[3] = Reported side effects / adverse events; type: in vivo, human
[4] = 3 g/d Calcium-HMB without intermittent fasting + RT, cited from earlier work

For `CC(C)(O)CC(=O)O` [TRFHMB, β-hydroxy-β-methylbutyrate], the “MTEF ES (d)” value ([1]; ITT analysis) was 0.68, the “MTKE ES (d)” value ([1]; ITT analysis) was 0.33 and the “MTEF Δ (%)” value ([1]; ITT analysis) was 8%. For the same compound, the “MTKE Δ (%)” value ([1]; ITT analysis) was 5%, the “MTEF (cm) Week 8” value ([1]; ITT analysis) was 2.96 ± 0.09 cm and the “MTKE (cm) Week 8” value ([1]; ITT analysis) was 4.33 ± 0.16 cm. For the same compound, the “MTEF (cm) Δ” value ([1]; ITT analysis) was 0.22 cm, the “MTKE (cm) Δ” value ([1]; ITT analysis) was 0.19 cm and the “MTEF ES (d)” value ([1]; PP analysis) was 0.86. The “MTKE ES (d)” value ([1]; PP analysis) was 0.31, the “MTEF Δ (%)” value ([1]; PP analysis) was 9% and the “MTKE Δ (%)” value ([1]; PP analysis) was 4%. For the same compound, the “MTEF (cm) Week 8” value ([1]; PP analysis) was 2.97 ± 0.10 cm, the “MTKE (cm) Week 8” value ([1]; PP analysis) was 4.44 ± 0.20 cm and the “MTEF (cm) Δ” value ([1]; PP analysis) was 0.24 cm. The “MTKE (cm) Δ” value ([1]; PP analysis) was 0.17 cm, the “Average Cortisol” value ([2]; ITT, Baseline) was 0.40 ± 0.07 µg/dL and the “Cortisol Awakening Response (AUC)” value ([2]; ITT, Baseline) was 17.5 ± 3.2. For the same compound, the “Average Cortisol” value ([2]; ITT, W 8) was 0.39 ± 0.98 µg/dL, the “Cortisol Awakening Response (AUC)” value ([2]; ITT, W 8) was 16.9 ± 4.0 and the “Average Cortisol Δ” value ([2]; ITT) was -0.01 µg/dL. The “Average Cortisol Δ (%)” value ([2]; ITT) was −3%, the “Cortisol Awakening Response (AUC) Δ” value ([2]; ITT) was −0.6 and the “Cortisol Awakening Response (AUC) Δ (%)” value ([2]; ITT) was −3%. For the same compound, the “Average Cortisol ES (d)” value ([2]; ITT) was −0.04, the “Cortisol Awakening Response (AUC) ES (d)” value ([2]; ITT) was −0.05 and the “Average Cortisol” value ([2]; PP, Baseline) was 0.34 ± 0.07 µg/dL. The “Cortisol Awakening Response (AUC)” value ([2]; PP, Baseline) was 14.0 ± 3.3, the “Average Cortisol” value ([2]; PP, W 8) was 0.42 ± 0.1 µg/dL and the “Cortisol Awakening Response (AUC)” value ([2]; PP, W 8) was 18.2 ± 4.7. For the same compound, the “Average Cortisol Δ” value ([2]; PP) was 0.1 µg/dL, the “Average Cortisol Δ (%)” value ([2]; PP) was 24% and the “Cortisol Awakening Response (AUC) Δ” value ([2]; PP) was 4.2. For the same compound, the “Cortisol Awakening Response (AUC) Δ (%)” value ([2]; PP) was 30%, the “Average Cortisol ES (d)” value ([2]; PP) was 0.93 and the “Cortisol Awakening Response (AUC) ES (d)” value ([2]; PP) was 0.64. For the same compound, the “Reported side effects at W4” value ([3]; week 4, n=1 each) was “morning fatigue; also recorded: bloated stomach”, the “Reported side effects at W8” value ([3]; week 8, n=1) was “bloated stomach” and the “BF % after 4 weeks” value ([4]; females n=18, from 23.7±1.1, nonsignificant) was 23.0±1.2%. The “BF % 4-week Δ-change” value [4] was −0.7%.
